{"source": "paper PMC10065799", "about": "“High-throughput profiling of sequence recognition by tyrosine kinases and SH2 domains using bacterial peptide display” (eLife, 2023)", "assay_in_all_cases": "pTyr-Var library bacterial peptide display kinase screen (enrichment scores)", "key": {"c-Src kinase domain": {"biological_target": "c-Src kinase domain (Homo sapiens, UniProt P12931)", "assay_type": "biochemical", "settings": "for Screen: sheet \"Src\""}, "EPHB2 kinase domain": {"system": "EPHB2 kinase domain", "assay_type": "biochemical, human", "settings": "sheet EPHB2; effect of variant peptide relative to its reference peptide in the pTyr-Var library screen (enrichment scores)"}, "c-Abl kinase domain": {"biological_target": "T1, c-Abl kinase domain (Mus musculus, UniProt P00520)", "T1 sequence (P00520 242-493 limits assumed)": "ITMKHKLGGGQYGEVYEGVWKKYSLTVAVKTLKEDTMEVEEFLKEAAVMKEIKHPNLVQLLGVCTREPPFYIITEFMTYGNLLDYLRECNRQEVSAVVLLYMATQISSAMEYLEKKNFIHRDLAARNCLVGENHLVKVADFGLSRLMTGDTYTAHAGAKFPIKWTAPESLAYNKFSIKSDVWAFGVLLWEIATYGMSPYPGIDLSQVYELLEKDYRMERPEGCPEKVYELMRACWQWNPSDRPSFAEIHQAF", "assay_type": "biochemical"}, "EPHB1 kinase domain": {"system": "EPHB1 kinase domain", "assay_type": "biochemical, human", "settings": "for Screen: sheet EPHB1, effect of the variant peptide relative to its reference peptide in the pTyr-Var library screen (enrichment scores); for Screen (variant relative to reference peptide, measured in the pTyr-Var library screen): sheet \"EPHB1\", variant seq vs reference seq, bacterial peptide display enrichment"}, "Fer kinase domain": {"system": "Fer kinase domain", "assay_type": "biochemical, mouse", "settings": "sheet \"Fer\""}, "[1]": {"settings": "variant peptide versus its reference peptide in the pTyr-Var library screen"}, "[2]": {"settings": "sheet \"Abl\", effect of variant peptide relative to its reference peptide in pTyr-Var library screen (enrichment)"}, "[3]": {"settings": "fig5-data2, sheet \"Abl\", Screen for the variant/reference peptide pair, pTyr-Var library"}, "[4]": {"settings": "effect of the variant peptide relative to its reference peptide in the pTyr-Var library screen"}, "[5]": {"settings": "value of the variant peptide against its reference peptide in the pTyr-Var library screen with Fer"}, "[6]": {"settings": "variant peptide relative to its reference peptide, pTyr-Var library screen enrichment"}}, "data": [{"sequence": "ADARMYGVLPR [PLP1_Y207_W212R]", "values": [{"measurement": "Screen", "setting": "c-Src kinase domain; [1]", "value": -3.205}, {"measurement": "Screen", "setting": "EPHB2 kinase domain", "value": -2.437}]}, {"sequence": "AVDDKYSRREE [SART1_Y685_I681V]", "values": [{"measurement": "Screen", "setting": "c-Abl kinase domain; [2]", "value": 0.5221}]}, {"sequence": "CEAVEYLESKQ [BTK_Y511_M509V]", "values": [{"measurement": "Screen", "setting": "c-Abl kinase domain; [3]", "value": 1.602}]}, {"sequence": "CEETFYTMKMN [MASP2_Y401_V405M]", "values": [{"measurement": "Screen", "setting": "c-Src kinase domain; [4]", "value": 0.9168}]}, {"sequence": "CGTPDYIDPEI [PRKCG_Y521_A523D]", "values": [{"measurement": "Screen", "setting": "c-Abl kinase domain; [3]", "value": -0.1317}]}, {"sequence": "DAHFTYSRFPW [LY75_Y888_D884A_YF]", "values": [{"measurement": "Screen", "setting": "c-Src kinase domain; [4]", "value": 0.1806}, {"measurement": "Screen", "setting": "EPHB1 kinase domain", "value": -0.9728}, {"measurement": "Screen", "setting": "EPHB2 kinase domain", "value": -0.5554}]}, {"sequence": "DCAAIYGNEPD [AKR1A1_Y50_E55D]", "values": [{"measurement": "Screen", "setting": "c-Src kinase domain; [4]", "value": 0.2268}]}, {"sequence": "DFCDLYGGEKF [PTPN11_Y66_Y63C_YF]", "values": [{"measurement": "Screen", "setting": "c-Src kinase domain; [1]", "value": -0.008516}]}, {"sequence": "DFFDLYGGEKL [PTPN11_Y66_F71L_YF]", "values": [{"measurement": "Screen", "setting": "c-Src kinase domain; [1]", "value": 0.4429}, {"measurement": "Screen", "setting": "c-Abl kinase domain; [3]", "value": -1.348}]}, {"sequence": "DISEPYEVFRI [IRF8_Y107_K108E_YF]", "values": [{"measurement": "Screen", "setting": "c-Src kinase domain; [4]", "value": 2.852}, {"measurement": "Screen", "setting": "Fer kinase domain; [5]", "value": 4.437}]}, {"sequence": "DKATEYSQFMR [MAX_Y70_I71S_YF]", "values": [{"measurement": "Screen", "setting": "c-Abl kinase domain; [3]", "value": -0.2428}]}, {"sequence": "DLDFTYIFPNI [PTEN_Y27_L25F_YF]", "values": [{"measurement": "Screen", "setting": "c-Src kinase domain; [1]", "value": -0.8557}, {"measurement": "Screen", "setting": "EPHB1 kinase domain", "value": -1.115}]}, {"sequence": "DRLASYLDKLR [KRT12_Y139_V143L]", "values": [{"measurement": "Screen", "setting": "c-Abl kinase domain; [3]", "value": 0.402}]}, {"sequence": "DTFDPYLDIAL [USP36_Y268_V271I_YF]", "values": [{"measurement": "Screen", "setting": "Fer kinase domain; [6]", "value": -0.4655}]}, {"sequence": "EAIAKYDLKAT [GRB2_Y7_F9L]", "values": [{"measurement": "Screen", "setting": "c-Abl kinase domain; [3]", "value": -1.289}]}, {"sequence": "EALDFYGEVRT", "values": [{"measurement": "Enrichment score (mean)", "setting": "c-Src kinase domain; pTyr-Var library screen with c-Src, sheet \"Src substrates\": annotated Src substrate sites, 11-residue peptide SITE_+/-5_AA, mean", "value": 1.015}]}, {"sequence": "EPSLVYMVTKI [CPS1_Y768_D767V]", "values": [{"measurement": "Screen", "setting": "Fer kinase domain; [5]", "value": 1.098}]}, {"sequence": "ERIEFYELNKK [PMM2_Y145_D148N]", "values": [{"measurement": "Screen", "setting": "c-Abl kinase domain; [3]", "value": -0.6166}]}, {"sequence": "ERRLIYASDPK [VPS13D_Y864_T865A]", "values": [{"measurement": "Screen", "setting": "c-Abl kinase domain; [2]", "value": -3.237}]}, {"sequence": "FAANFYKLLGN [ROR2_Y646_D644N_YF]", "values": [{"measurement": "Screen", "setting": "c-Abl kinase domain; [3]", "value": 1.009}]}, {"sequence": "FIATQYSLCPR [LBR_Y166_R169C_YF]", "values": [{"measurement": "Screen", "setting": "c-Abl kinase domain; [3]", "value": -1.302}]}, {"sequence": "FKEIVYAVSSD [DCX_Y70_G67E]", "values": [{"measurement": "Screen", "setting": "c-Src kinase domain; [4]", "value": 2.95}]}, {"sequence": "FLAVGYHKPRI [IDS_Y225_H229R]", "values": [{"measurement": "Screen", "setting": "c-Abl kinase domain; [3]", "value": -0.1841}]}, {"sequence": "FQKNIYSEEPR [LMNA_Y211_L215P]", "values": [{"measurement": "Screen", "setting": "c-Src kinase domain; [4]", "value": -0.2654}]}, {"sequence": "FQRITYHNWRH [PDE6B_Y556_R552Q_YF]", "values": [{"measurement": "Screen", "setting": "c-Abl kinase domain; [3]", "value": 0.8312}]}, {"sequence": "FSIDFYRVGGH [NTRK2_Y707_T704I_YF]", "values": [{"measurement": "Screen", "setting": "c-Abl kinase domain; [3]", "value": -1.897}]}, {"sequence": "GFILMYDITNK [RAB3C_Y110_E115K]", "values": [{"measurement": "Screen", "setting": "EPHB2 kinase domain", "value": -0.5126}]}, {"sequence": "GSESDYIIMPN [SCARB1_Y133_V135I]", "values": [{"measurement": "Screen (variant relative to reference peptide, measured in the pTyr-Var library screen)", "setting": "EPHB1 kinase domain", "value": -0.2975}, {"measurement": "Screen", "setting": "EPHB2 kinase domain", "value": -0.2465}]}, {"sequence": "GVMLLYFGRFN [ADGRD1_Y85_T82M_YF]", "values": [{"measurement": "Screen", "setting": "c-Abl kinase domain; [3]", "value": 0.9615}]}, {"sequence": "HDRNTYEKFLE [TF_Y666_G671E_YF]", "values": [{"measurement": "Screen", "setting": "c-Src kinase domain; [1]", "value": -1.841}]}, {"sequence": "HRNNNYEPNLF [BRCA2_Y57_K53R]", "values": [{"measurement": "Screen", "setting": "EPHB1 kinase domain", "value": -0.3671}]}, {"sequence": "HVSISYDIPLT [GAB1_Y307_P311L]", "values": [{"measurement": "Screen", "setting": "c-Abl kinase domain; [3]", "value": 1.089}]}, {"sequence": "IDSTPYGQWFE [RPS8_Y109_R110G_YF]", "values": [{"measurement": "Screen", "setting": "c-Src kinase domain; [1]", "value": 3.305}]}, {"sequence": "IEPCIYIPEDD [XPNPEP3_Y455_G453C]", "values": [{"measurement": "Screen", "setting": "c-Abl kinase domain; [2]", "value": -2.393}]}, {"sequence": "IGHGSYAKVLL [PRKCZ_Y263_R260H]", "values": [{"measurement": "Screen", "setting": "c-Abl kinase domain; [3]", "value": 0.1947}]}, {"sequence": "IMVFVYCRVFQ [ADRB2_Y219_S220C]", "values": [{"measurement": "Screen", "setting": "c-Abl kinase domain; [3]", "value": 1.764}]}, {"sequence": "IPGGIYNADLN [CST4_Y35_D36N]", "values": [{"measurement": "Screen", "setting": "c-Src kinase domain; [4]", "value": -0.256}]}, {"sequence": "IPTPAYQSLPA [PDCD6IP_Y727_S730L]", "values": [{"measurement": "Screen", "setting": "c-Abl kinase domain; [3]", "value": -0.8712}]}, {"sequence": "KDQPDYKFQPR [SOX9_Y172_H169Q_YF]", "values": [{"measurement": "Screen", "setting": "c-Abl kinase domain; [2]", "value": -0.1662}]}, {"sequence": "KFEDVYVRICL [B3GALNT1_Y269_G271R]", "values": [{"measurement": "Screen", "setting": "c-Src kinase domain; [4]", "value": -2.417}, {"measurement": "Screen", "setting": "Fer kinase domain; [5]", "value": -2.092}]}, {"sequence": "KKLAEYGPQGK [CLCA1_Y147_R152K]", "values": [{"measurement": "Screen", "setting": "c-Abl kinase domain; [3]", "value": 0.7729}]}, {"sequence": "KMKGDYFRSLA [YWHAG_Y130_Y133S_YF]", "values": [{"measurement": "Screen", "setting": "c-Src kinase domain; [1]", "value": -2.206}, {"measurement": "Screen", "setting": "c-Abl kinase domain; [2]", "value": -4.108}]}, {"sequence": "KRGIDYILWHM [FRMD1_Y225_R228W]", "values": [{"measurement": "Screen", "setting": "c-Abl kinase domain; [3]", "value": 2.918}]}, {"sequence": "KRRGPYEMSPS [PLPP7_Y172_T174M]", "values": [{"measurement": "Screen", "setting": "c-Abl kinase domain; [3]", "value": -0.6744}]}, {"sequence": "KSMFVYCTPNK [ATP2A2_Y497_S495F]", "values": [{"measurement": "Screen", "setting": "c-Abl kinase domain; [3]", "value": 1.832}]}, {"sequence": "KSSDVYVSFDC [SORL1_Y136_Y141C_YF]", "values": [{"measurement": "Screen", "setting": "c-Src kinase domain; [1]", "value": -0.3615}, {"measurement": "Screen", "setting": "Fer kinase domain; [6]", "value": -2.678}, {"measurement": "Screen (variant relative to reference peptide, measured in the pTyr-Var library screen)", "setting": "EPHB1 kinase domain", "value": -0.2812}]}, {"sequence": "KVALVYGQMNQ [ATP5F1B_Y269_E274Q]", "values": [{"measurement": "Screen", "setting": "c-Src kinase domain; [4]", "value": 0.6915}]}, {"sequence": "LAIERYVVVSK [RHO_Y136_C140S]", "values": [{"measurement": "Screen", "setting": "EPHB2 kinase domain", "value": 0.1273}]}, {"sequence": "LAIEWYVVVCK [RHO_Y136_R135W]", "values": [{"measurement": "Screen", "setting": "EPHB1 kinase domain", "value": 0.5887}]}, {"sequence": "LEVETYRRLLD [KRT12_Y429_I426V]", "values": [{"measurement": "Screen", "setting": "c-Abl kinase domain; [3]", "value": 0.412}]}]}
